Where two headings read alike, the source gives them in different places.
What was measured:
[1] = target: Recombinant Human NF-kappaB-Inducing Kinase (NIK/MAP3K14) (Homo sapiens, UniProt Q99558); assay: Inhibition of auto-phosphorylation of recombinant human NIK/MAP3K14 activity (AlphaScreen); type: biochemical; settings: 5 μM ATP, 1 nM NIK, average if tested more than once
Procedure, shortened: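 AlphaScreen detection of phospho-Ser176/180 after 1 nM GST-NIK auto-phosphorylates for 2 h at 25 °C with 5 μM ATP (50 mM Tris pH 7.5, 0.7% DMSO). IC50s come from sigmoidal curves of % inhibition against log dose, using enzyme-free, ATP-free low controls and full-activity high controls.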

[2] = tested on: p-IKKa levels in L363 (NIK translocated multiple myeloma) cells; assay: Effect of compounds on p-IKKa levels in L363 (NIK translocated multiple myeloma) cells (AlphaLISA SureFire Ultra p-IKKa Ser176/180); type: cell-based, human; settings: average if tested more than once, read-out: Assay 2 IC50
Procedure, shortened: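 Phospho-IKKa (Ser176/180) in lysates quantified by AlphaLISA after 6 h compound exposure, 11-point threefold dilutions, 0.3% DMSO. L363 cells were pre-stimulated overnight and assayed with 250 ng/ml BAFF and 10 μM MG132; % inhibition fitted sigmoidally for IC50, duplicate curves.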

[3] = Homo sapiens, L-363, p-IKKa levels in L363 cells

Sequence of Recombinant Human NF-kappaB-Inducing Kinase (NIK/MAP3K14) (Q99558 whole entry): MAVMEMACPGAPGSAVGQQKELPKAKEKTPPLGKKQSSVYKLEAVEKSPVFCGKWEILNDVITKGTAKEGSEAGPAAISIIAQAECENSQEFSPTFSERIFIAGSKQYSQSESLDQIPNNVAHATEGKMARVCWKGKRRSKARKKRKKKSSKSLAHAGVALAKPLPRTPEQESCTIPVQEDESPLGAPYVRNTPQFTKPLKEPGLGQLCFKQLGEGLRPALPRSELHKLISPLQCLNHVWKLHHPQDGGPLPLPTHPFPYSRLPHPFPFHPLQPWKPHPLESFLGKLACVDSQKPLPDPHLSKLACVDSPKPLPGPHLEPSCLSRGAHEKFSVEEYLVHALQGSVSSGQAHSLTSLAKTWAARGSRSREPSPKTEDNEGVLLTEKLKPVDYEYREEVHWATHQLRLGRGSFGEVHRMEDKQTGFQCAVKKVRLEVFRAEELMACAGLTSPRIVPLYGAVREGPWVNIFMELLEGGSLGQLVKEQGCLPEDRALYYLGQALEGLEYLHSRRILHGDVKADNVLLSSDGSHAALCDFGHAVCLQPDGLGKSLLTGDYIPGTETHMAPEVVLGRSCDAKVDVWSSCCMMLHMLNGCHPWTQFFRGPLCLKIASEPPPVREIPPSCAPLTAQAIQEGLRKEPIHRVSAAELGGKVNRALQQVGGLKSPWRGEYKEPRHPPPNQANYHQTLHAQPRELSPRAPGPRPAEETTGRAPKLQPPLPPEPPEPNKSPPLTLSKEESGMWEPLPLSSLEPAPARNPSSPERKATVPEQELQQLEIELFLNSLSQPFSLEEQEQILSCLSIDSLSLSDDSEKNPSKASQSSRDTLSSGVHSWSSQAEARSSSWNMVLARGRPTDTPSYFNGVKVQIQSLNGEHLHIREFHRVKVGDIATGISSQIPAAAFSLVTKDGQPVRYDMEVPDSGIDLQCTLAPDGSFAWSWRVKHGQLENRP

| Structure (SMILES) | IC50 [1] [nM] | IC50 ([2]; p-IKKa levels in L363 cells) [nM] | IC50 [2, 3] [nM] |
| --- | --- | --- | --- |
| CN1CCC(O)(c2ccc(F)c(-c3csc(-c4ccnc(Nc5ccn(C)n5)n4)n3)c2)C1=O (single isomer, unassigned) [Example 29, 3-(4-fluoro-3-(2-(2-((1-methyl-1H-pyrazol-3-yl)amino)pyrimidin-4-yl)thiazol-4-yl)phenyl)-3-hydroxy-1-methylpyrrolidin-2-one] | 100 to 500 | > 501 | – |
| CN1CC[C@@](O)(c2cccc(-c3csc(-c4ccnc(Nc5cnn6ccccc56)n4)n3)c2)C1=O [Example 82, (R)-3-hydroxy-1-methyl-3-(3-(2-(2-(pyrazolo[1,5-a]pyridin-3-ylamino)pyrimidin-4-yl)thiazol-4-yl)phenyl)pyrrolidin-2-one] | < 100 | – | < 100 |
| CN1CC[C@@](O)(c2cccc(-c3nc(-c4ccnc(Nc5ncccc5F)n4)cs3)c2)C1=O [Example 163, (R)-3-(3-(4-(2-((3-Fluoropyridin-2-yl)amino)pyrimidin-4-yl)thiazol-2-yl)phenyl)-3-hydroxy-1-methylpyrrolidin-2-one] | 100 to 500 | – | > 501 |
| CN1CC[C@@](O)(c2cccc(-c3nc(-c4ccnc(NC5COC5)n4)cs3)c2)C1=O [Example 230] | < 100 | – | 100 to 500 |
| CN1CC[C@@](O)(c2cccc(-c3nc(-c4ccnc(Nc5cn(C)nc5OCC(F)F)n4)cs3)c2)C1=O [Example 96, (R)-3-(3-(4-(2-((3-(2,2-difluoroethoxy)-1-methyl-1H-pyrazol-4-yl)amino)pyrimidin-4-yl)thiazol-2-yl)phenyl)-3-hydroxy-1-methylpyrrolidin-2-one] | < 100 | – | < 100 |
| CN1CC[C@@](O)(c2cccc(-c3nc(-c4ccnc(Nc5cn(CC6CCC6)cn5)n4)cs3)c2)C1=O [Example 125, (R)-3-(3-(4-(2-((1-(cyclobutylmethyl)-1H-imidazol-4-yl)amino)pyrimidin-4-yl)thiazol-2-yl)phenyl)-3-hydroxy-1-methylpyrrolidin-2-one] | < 100 | – | > 501 |
| CN1CC[C@@](O)(c2cccc(-c3csc(-c4ccnc(Nc5cnn(C6CCS(=O)(=O)CC6)c5)n4)n3)c2)C1=O [Example 88, (R)-3-(3-(2-(2-((1-(1,1-dioxidotetrahydro-2H-thiopyran-4-yl)-1H-pyrazol-4-yl)amino)pyrimidin-4-yl)thiazol-4-yl)phenyl)-3-hydroxy-1-methylpyrrolidin-2-one] | < 100 | – | 100 to 500 |
| CN1CC[C@@](O)(c2cccc(-c3ccn(-c4ccnc(Nc5cn(CC(F)F)nc5OC5CC5)n4)n3)c2)C1=O [Example 102, (R)-3-(3-(1-(2-((3-cyclopropoxy-1-(2,2-difluoroethyl)-1H-pyrazol-4-yl)amino)pyrimidin-4-yl)-1H-pyrazol-3-yl)phenyl)-3-hydroxy-1-methylpyrrolidin-2-one] | < 100 | – | < 100 |
| CN1CCC(O)(c2ccnc(-c3cccc(-c4ccnc(Nc5ccn(C)n5)n4)n3)c2)C1=O (racemic) [Example 31, (R,S)-3-Hydroxy-1-methyl-3-(6′-(2-((1-methyl-1H-pyrazol-3-yl)amino)pyrimidin-4-yl)-[2,2′-bipyridin]-4-yl)pyrrolidin-2-one] | > 501 | – | > 501 |
| CN1CC[C@@](O)(c2cccc(-c3nc(-c4ccnc(NC5CC5)n4)cs3)c2)C1=O [Example 137, (R)-3-(3-(4-(2-(cyclopropylamino)pyrimidin-4-yl)thiazol-2-yl)phenyl)-3-hydroxy-1-methylpyrrolidin-2-one] | < 100 | – | > 501 |
| C[C@@H](Nc1nccc(-c2csc(-c3cccc([C@]4(O)CCN(C)C4=O)c3)n2)n1)c1ccccn1 [Example 185] | < 100 | – | > 501 |
| CN1CC(Nc2nccc(-c3csc(-c4cccc([C@]5(O)CCN(C)C5=O)c4)n3)n2)CCC1=O (stereo partly shown) [Example 222] | < 100 | – | > 501 |
| CN1CC[C@@](O)(c2cccc(-c3nc(-c4ccnc(N[C@H]5CC[C@H](O)C5)n4)cs3)c2)C1=O [Example 252] | 100 to 500 | – | > 501 |
| CN1CC[C@@](O)(c2cccc(-c3nc(-c4ccnc(Nc5cn(C)nc5OC5CCC5)n4)cs3)c2)C1=O [Example 97, (R)-3-(3-(4-(2-((3-cyclobutoxy-1-methyl-1H-pyrazol-4-yl)amino)pyrimidin-4-yl)thiazol-2-yl)phenyl)-3-hydroxy-1-methylpyrrolidin-2-one] | < 100 | – | < 100 |
| COc1ncccc1Nc1nccc(-c2csc(-c3cccc([C@]4(O)CCN(C)C4=O)c3)n2)n1 [Example 7, (R)-3-Hydroxy-3-(3-(4-(2-((2-methoxypyridin-3-yl)amino)pyrimidin-4-yl)thiazol-2-yl)phenyl)-1-methylpyrrolidin-2-one] | < 100 | – | 100 to 500 |
| CN1CC[C@@](O)(c2cccc(-c3nc(-c4ccnc(Nc5cc(C6CC6)nn5C)n4)cs3)c2)C1=O [Example 164, (R)-3-(3-(4-(2-((3-Cyclopropyl-1-methyl-1H-pyrazol-5-yl)amino)pyrimidin-4-yl)thiazol-2-yl)phenyl)-3-hydroxy-1-methylpyrrolidin-2-one] | < 100 | – | 100 to 500 |

| Structure (SMILES) | IC50 [1] [nM] | IC50 ([2]; p-IKKa levels in L363 cells) [nM] | IC50 [2, 3] [nM] |
| --- | --- | --- | --- |
| CN1C(=O)[C@](O)(c2ccnc(-c3csc(-c4ccnc(Nc5ccn(C)n5)n4)n3)c2)C[C@H]1C(F)(F)F (single isomer, unassigned) [Example 59] | < 100 | – | 100 to 500 |
| Cc1cc(Nc2nccc(-c3csc(-c4cccc([C@]5(O)CCN(C)C5=O)c4)n3)n2)c(=O)n(C)c1 [Example 14, (R)-3-((4-(2-(3-(3-Hydroxy-1-methyl-2-oxopyrrolidin-3-yl)phenyl)thiazol-4-yl)pyrimidin-2-yl)amino)-1,5-dimethylpyridin-2(1H)-one] | < 100 | – | 100 to 500 |
| C[C@H](Nc1nccc(-c2csc(-c3cccc([C@]4(O)CCN(C)C4=O)c3)n2)n1)c1ccccn1 [Example 186] | 100 to 500 | – | > 501 |
| CN1CCC[C@H](Nc2nccc(-c3csc(-c4cccc([C@]5(O)CCN(C)C5=O)c4)n3)n2)C1=O [Example 223] | > 501 | – | > 501 |
| CCn1cc(Nc2nccc(-c3csc(-c4cccc([C@]5(O)CCN(C)C5=O)c4)n3)n2)c(OC)n1 [Example 103, (R)-3-(3-(4-(2-((1-ethyl-3-methoxy-1H-pyrazol-4-yl)amino)pyrimidin-4-yl)thiazol-2-yl)phenyl)-3-hydroxy-1-methylpyrrolidin-2-one] | < 100 | – | 100 to 500 |
| CN1CC[C@@](O)(c2cccc(-n3ccc(-c4ccnc(Nc5ccn(C)n5)n4)n3)c2)C1=O [Example 55, (R)-3-hydroxy-1-methyl-3-(3-(3-(2-((1-methyl-1H-pyrazol-3-yl)amino)pyrimidin-4-yl)-1H-pyrazol-1-yl)phenyl)pyrrolidin-2-one] | < 100 | – | 100 to 500 |
| CN1CC[C@@](O)(c2cccc(-c3nc(-c4ccnc(Nc5ccn(C)n5)n4)cs3)c2)C1=O [Example 56, (R)-3-hydroxy-1-methyl-3-(3-(4-(2-((1-methyl-1H-pyrazol-3-yl)amino)pyrimidin-4-yl)thiazol-2-yl)phenyl)pyrrolidin-2-one] | < 100 | – | 100 to 500 |
| Cc1cc(Nc2nccc(-c3csc(-c4cccc([C@]5(O)CCN(C)C5=O)c4)n3)n2)nn1C [Example 49, (R)-3-(3-(4-(2-((1,5-Dimethyl-1H-pyrazol-3-yl)amino)pyrimidin-4-yl)thiazol-2-yl)phenyl)-3-hydroxy-1-methylpyrrolidin-2-one] | < 100 | – | 100 to 500 |
| C[C@H](Nc1nccc(-c2csc(-c3cccc([C@]4(O)CCN(C)C4=O)c3)n2)n1)c1cn[nH]c1 (single isomer, unassigned) [Example 294] | < 100 | > 501 | – |
| CC(=O)N1CC(Nc2nccc(-c3csc(-c4cccc([C@]5(O)CCN(C)C5=O)c4)n3)n2)C1 [Example 172] | 100 to 500 | – | > 501 |
| CN1CC[C@@](O)(c2cccc(-c3nc(-c4ccnc(NCCCS(C)(=O)=O)n4)cs3)c2)C1=O [Example 232] | 100 to 500 | – | > 501 |
| CCn1ncc(C)c1Nc1nccc(-c2csc(-c3cccc([C@]4(O)CCN(C)C4=O)c3)n2)n1 [Example 64, (R)-3-(3-(4-(2-((1-ethyl-4-methyl-1H-pyrazol-5-yl)amino)pyrimidin-4-yl)thiazol-2-yl)phenyl)-3-hydroxy-1-methylpyrrolidin-2-one] | > 501 | – | > 501 |
| CN1CC[C@@](O)(c2cccc(-c3nc(-c4ccnc(NCc5cn(C)cn5)n4)cs3)c2)C1=O [Example 196] | 100 to 500 | – | > 501 |
| CN1CC[C@@](O)(c2cccc(-c3nc(-c4ccnc(Nc5ccn(CC6CC6)n5)n4)cs3)c2)C1=O [Example 288, (R)-3-(3-(4-(2-((1-(cyclopropylmethyl)-1H-pyrazol-3-yl)amino)pyrimidin-4-yl)thiazol-2-yl)phenyl)-3-hydroxy-1-methylpyrrolidin-2-one] | < 100 | – | 100 to 500 |
| CN1CC[C@@](O)(c2cccc(-c3nc(-c4ccnc(Nc5cn(C)nc5OC5CCCC5)n4)cs3)c2)C1=O [Example 95, (R)-3-(3-(4-(2-((3-(cyclopentyloxy)-1-methyl-1H-pyrazol-4-yl)amino)pyrimidin-4-yl)thiazol-2-yl)phenyl)-3-hydroxy-1-methylpyrrolidin-2-one] | < 100 | – | 100 to 500 |
| COCCCNc1nccc(-c2csc(-c3cccc([C@]4(O)CCN(C)C4=O)c3)n2)n1 [Example 242] | 100 to 500 | – | > 501 |

— patent US20250304567A1, “PYRROLIDIONE DERIVATIVES AS INHIBITORS OF NF KAPPA B INDUCING KINASE” (priority 2022, published 2025)
